In US20090022803A1, “Oral Formulations For Delivery of Catecholic Butanes Including Ndga Compounds” (priority 2005, published 2009):
Like-named read-outs stand apart in the source and are kept apart here.

Format: physicochemical
Conditions: for Dissolution After Heating: 90° C.
Protocol: A 10 mL solution of M4N at a concentration of about 10 mg/mL in 40% BP-β-CD was made as follows. About 10 mL of the 40% HP-β-CD solution were added to a glass beaker containing a stir bar. The beaker was placed on a magnetic plate and the stir bar was set to stir at medium speed. About […] of M4N were slowly added to the 40% HP-β-CD in the center of the beaker with the aid of a spatula. The M4N/40% HP-β-CD mixture was stirred for 2 hr or until all M4N was uniformly suspended without any clumps being present. The M4N/40% HP-β-CD mixture was optionally heated at 80° C. for about 30 min. (or longer if a larger volume of solution was desired, for example, 1 hr at 80° C. for 100 mL of the M4N/HP-β-CD mixture), or longer as needed to ensure complete dissolution of M4N. […] The final M4N/40% HP-β-CD solution was stored at room temperature and was kept protected from light. This process may be scaled up or down to obtain the requisite volume or concentration of M4N. Formulations containing M4N in other cyclodextrin solutions may be similarly made, such as, for example, by substituting HP-β-CD in the process described above with other cyclodextrins. […]
A 10 mL solution of M4N at a concentration of about 10 mg/mL in 50% HP-β-CD/0.5% HPMC was made as follows. About 10 mL of the 50% HP-β-CD/0.5% HPMC solution were added to a glass beaker containing a stir bar. The beaker was placed on a magnetic plate and the stir bar was set to stir at medium speed. About 100 mg of M4N were slowly added to the 50% HP-β-CD/0.5% HPMC in the center of the beaker with the aid of a spatula. The M4N/50% HP-β-CD/0.5% HPMC mixture was stirred for 24 hr or until all M4N was uniformly suspended without any clumps being present. The M4N/50% HP-β-CD/0.5% HPMC mixture was heated at about 90° C. for about 30 min. (or longer if a larger volume of solution was desired, for example, 1 hr at 90° C. for 500 mL of the M4N/50% HP-β-CD/0.5% HPMC mixture), or longer as needed to ensure complete dissolution of M4N. […] The final M4N/50% HP-β-CD/0.5% HPMC solution was stored at room temperature and was kept protected from light.
A 10 mL solution of M4N at a concentration of about 20 mg/mL in 5% EC (w/v) (the “EC formulation”) was made as follows. About 10 mL of 5% EC formulation, made as described above, were added to a glass beaker containing a stir bar. The beaker was placed on a magnetic plate and the stir bar was set to stir at medium speed, and covered with a round Teflon® cover. About 200 mg of M4N were slowly added to the 5% EC formulation in the center of the beaker with the aid of a spatula to prevent M4N from sticking to the beaker wall. The M4N/EC mixture was stirred for 2 hr or until all M4N had dissolved or was uniformly suspended without any clumps being present. The M4N/EC mixture was heated at about 60° C. for about 30 min. (or longer if a larger volume of solution was desired, for example, 1 hr at 60° C. for 500 mL of the M4N/EC mixture), or longer as needed to ensure complete dissolution of M4N. […] The final M4N/EC solution was stored at room temperature and was kept protected from light.
A 10 mL solution of M4N at a concentration of about 50 mg/mL in sesame oil was made as follows. About 10 mL of sesame oil were added to a glass beaker containing a stir bar. The beaker was placed on a magnetic plate and the stir bar was set to stir at medium speed. About 500 mg of M4N were slowly added to the sesame oil in the center of the beaker with the aid of a spatula to prevent M4N from sticking to the beaker wall. The M4N/sesame oil mixture was stirred for about 2 hr or until all M4N had dissolved or was uniformly suspended without any clump being present. The M4N/sesame oil mixture was heated at about 60° C. for about 30 min. (or longer if a larger volume of solution was desired, for example, 1 hr at 60° C. for 500 mL of the M4N/sesame oil mixture), or longer as need to ensure complete dissolution of M4N. […]

[1] = M4N 1 mg/mL in 40% HP-β-CD, 1% PVP (w/v)
[2] = M4N 1 mg/mL in 50% HP-β-CD, 0.5% HPMC
[3] = M4N 1 mg/mL in 50% HP-β-CD, 1.25% PVP (w/v)
[4] = M4N 3.13 mg/mL in 5% HP-β-CD, 12.5% PEG 300 (v/v)
[5] = M4N 4.17 mg/mL in 6.7% HP-β-CD, 16.7% PEG 300 (v/v)
[6] = M4N 6.25 mg/mL in 10% HP-β-CD, 25% PEG 300 (v/v)
Throughout, for Dissolution After Cool Down: key: N represents 'No'; Y represents 'Yes.'.

## COc1ccc(C[C@@H](C)[C@@H](C)Cc2ccc(OC)c(OC)c2)cc1OC [Formulation M4N, meso-1,4-bis(3,4-dimethoxyphenyl)-2,3-dimethylbutane]
M4N 1 mg/mL in 1.50% β-CD
  Dissolution After Rotation: N
M4N 1 mg/mL in 1.50% β-CD, 90°
  Dissolution After Heating at X° C.: N at 90°
M4N 1 mg/mL in 2% MC (Low viscosity)
  Dissolution After Rotation: N
M4N 1 mg/mL in 2.3% HPMC
  Dissolution After Rotation: N
  Dissolution After Heating: N at 90 °C
M4N 1 mg/mL in 5% EC in EtOH
  Dissolution After Rotation: Y
M4N 1 mg/mL in 5% γ-CD
  Dissolution After Rotation: N
M4N 1 mg/mL in 5% γ-CD, 90°
  Dissolution After Heating at X° C.: N at 90°
M4N 1 mg/mL in 15% α-CD
  Dissolution After Rotation: N
M4N 1 mg/mL in 15% α-CD, 90°
  Dissolution After Heating at X° C.: N at 90°
M4N 1 mg/mL in 20% HP-β-CD
  Dissolution After Cool Down: Y
  Dissolution After Rotation: N
M4N 1 mg/mL in 20% HP-β-CD in saline
  Dissolution After Rotation: N
M4N 1 mg/mL in 20% HP-β-CD, 90°
  Dissolution After Heating at X° C.: Y at 90°
M4N 1 mg/mL in 30% HP-β-CD
  Dissolution After Cool Down: Y
  Dissolution After Rotation: N
M4N 1 mg/mL in 30% HP-β-CD, 90°
  Dissolution After Heating at X° C.: Y at 90°
M4N 1 mg/mL in 40% HP-β-CD
  Dissolution After Cool Down: Y
  Dissolution After Rotation: N
[1]
  Dissolution After Heating at X° C.: N
  Dissolution After Rotation: N
M4N 1 mg/mL in 40% HP-β-CD, 2.5% PG (v/v)
  Dissolution After Rotation: N
M4N 1 mg/mL in 40% HP-β-CD, 2.5% PG (v/v), 80°
  Dissolution After Heating at X° C.: N at 80°
M4N 1 mg/mL in 40% HP-β-CD, 80°
  Dissolution After Heating at X° C.: Y at 80°
M4N 1 mg/mL in 50% HP-β-CD
  Dissolution After Cool Down: Y
  Dissolution After Rotation: N
M4N 1 mg/mL in 50% HP-β-CD, 0.5% CMC
  Dissolution After Rotation: Suspension
[2]
  Dissolution After Cool-Down: Y
  Dissolution After Rotation: N
M4N 1 mg/mL in 50% HP-β-CD, 0.5% HPMC, other experiment, no heat
  Dissolution After Rotation: Suspension
[3]
  Dissolution After Cool Down: Y
  Dissolution After Rotation: N
M4N 1 mg/mL in 50% HP-β-CD, 1.25% PVP (w/v), 90°
  Dissolution After Heating at X° C.: Y at 90°
M4N 1 mg/mL in 50% HP-β-CD, 90°
  Dissolution After Heating at X° C.: Y at 90°
M4N 1 mg/mL in Corn Oil
  Dissolution After Cool-Down: Y
[4]
  Dissolution After Cool Down: Y
  Dissolution After Rotation: N
M4N 3.13 mg/mL in 5% HP-β-CD, 12.5% PEG 300 (v/v), 60°
  Dissolution After Heating at X° C.: Y at 60°
[5]
  Dissolution After Cool Down: Y
  Dissolution After Rotation: N
M4N 4.17 mg/mL in 6.7% HP-β-CD, 16.7% PEG 300 (v/v), 60°
  Dissolution After Heating at X° C.: Y at 60°
[6]
  Dissolution After Cool Down: Y
  Dissolution After Rotation: N
M4N 6.25 mg/mL in 10% HP-β-CD, 25% PEG 300 (v/v), 60°
  Dissolution After Heating at X° C.: Y at 60°
M4N 10 mg/mL in 1% HPMC
  Dissolution After Rotation: suspension
M4N 10 mg/mL in 1.50% β-CD
  Dissolution After Rotation: N
M4N 10 mg/mL in 1.50% β-CD, 90°
  Dissolution After Heating at X° C.: N at 90°
M4N 10 mg/mL in 2.3% HPMC
  Dissolution After Rotation: N
  Dissolution After Heating: N at 90 °C
M4N 10 mg/mL in 5% EC in EtOH
  Dissolution After Cool-Down: Y
  Dissolution After Rotation: N
M4N 10 mg/mL in 15% α-CD
  Dissolution After Rotation: N
M4N 10 mg/mL in 15% α-CD, 90°
  Dissolution After Heating at X° C.: N at 90°
M4N 10 mg/mL in 20% HP-β-CD
  Dissolution After Rotation: N
M4N 10 mg/mL in 20% HP-β-CD in saline
  Dissolution After Rotation: N
M4N 10 mg/mL in 20% HP-β-CD, 90°
  Dissolution After Heating at X° C.: N at 90°
M4N 10 mg/mL in 30% HP-β-CD
  Dissolution After Cool Down: Y
  Dissolution After Rotation: N
M4N 10 mg/mL in 30% HP-β-CD, 90°
  Dissolution After Heating at X° C.: Y at 90°
